Measurements taken from US20220153766A1, “CONDENSED TRICYCLIC COMPOUND USED AS KINASE INHIBITOR” (Hangzhou Innogate Pharma Co., Ltd., priority 2019, published 2022).

Experiments:
EGFR (T790M/L858R/C797S) = EGFR (T790M/L858R/C797S) (Homo sapiens, UniProt P00533, C797S/L858R/T790M); assay: EGFR (T790M/L858R/C797S) kinase activity inhibition, Caliper mobility shift assay; assay type: biochemical; settings: kinase 2.5 nM, ATP 40 μM
Experimental: The basic method is the same as ALK activity test method 2. The test concentration of the compound starts at 2 μM, and is diluted 5 folds into 6 (7 for individual compounds) concentration points. […] Add 30 μL of stop solution containing EDTA to stop the kinase reaction. Use Caliper EZ Reader to read the conversion rate. Inhibition rate %=(Average positive control conversion rate %−Sample conversion rate %/(Average positive control conversion rate %−Average negative control conversion rate %). Among them: negative control wells represent the conversion rate readings without enzyme activity; positive control wells represent the conversion rate readings of wells without compound inhibition. Take the log value of the concentration as the X-axis, and the percentage inhibition rate on the Y-axis. Log (inhibitor) vs. response—Variable slope of analysis software GraphPad Prism 5 was used to fit the curve to obtain the IC50 value of each compound on the enzyme activity. Calculation formula: Y=Bottom+(Top−Bottom)/(1+10^((Log IC50−X)*HillSlope)).

MAP4K1 (HPK1) = MAP4K1 (HPK1) (Homo sapiens, UniProt Q92918); assay: MAP4K1 (HPK1) kinase activity inhibition, Caliper mobility shift assay; assay type: biochemical; settings: kinase 1.25 nM, ATP 10.1 μM
Experimental: 4. MAP4K1 (HPK1) Kinase Activity Inhibition Experiment: Caliper mobility shift assay was used to detect the inhibitory effect of the compound on MAP4K1 (HPK1) kinase activity. The test concentration of the compound starts at 500 nM, and is diluted 5 folds into 5 concentration points. Use a dispenser Echo 550 to transfer 250 nL 100-fold final concentration of the compound to the target plate 3573, add 10 μL of MAP4K1 (HPK1) kinase solution with a final concentration of 1.25 nM, and incubate for 10 minutes at room temperature (the negative control well contains 10 μL kinase buffer and 250 nL 100% DMSO; the positive control well contains 10 μL kinase solution and 250 nL 100% DMSO). On the kinase MAP4K1 (HPK1), add 15 μL of ATP with a final concentration of 10.1 μM and 3 μM substrate peptide No. 25 mixed solution to react for 120 minutes. Add 30 μL of stop solution containing EDTA to stop the kinase reaction. Use Caliper EZ Reader to read the conversion rate. Inhibition rate %=(Average positive control conversion rate %−Sample conversion rate %/(Average positive control conversion rate %−Average negative control conversion rate %). Among them: negative control wells represent the conversion rate readings without enzyme activity; positive control wells represent the conversion rate readings of wells without compound inhibition. Take the log value of the concentration as the X-axis, and the percentage inhibition rate on the Y-axis. Log (inhibitor) vs. response—Variable slope of analysis software GraphPad Prism 5 was used to fit the curve to obtain the IC50 value of each compound on the enzyme activity. Calculation formula: Y=Bottom+(Top−Bottom)/(1+10 ^((Log IC50−X)*HillSlope)).

[1] = Pharmacokinetic study in rats after intragastrical administration; assay type: in vivo; settings: male, rat, plasma, po, SD rats, 3 mg/kg; for AUC(0-t): read-out: AUC0-24 h
Experimental: Example 55: Pharmacokinetic Study in Rats
Instruments: XEVO TQ-S LC/MS instrument produced by Waters. All measurement data is collected and processed by Masslynx V4.1 software, and the data is calculated and processed by Microsoft Excel. Using WinNonLin 8.0 software, the statistical moment method was used to calculate the pharmacokinetic parameters. Mainly include kinetic parameters Tmax, T1/2, Cmax, AUClast etc. […] Injection volume: 5 μL.
Animals: 3 male SD rats with a weight range of 200-220 g. After purchase, they will be kept in the laboratory of the Experimental Animal Center for 2 days and then used. They will be fasted for 12 hours predose and 4 hours after dosing. Drinking water is free during the test. After the rats were gavage, blood samples were taken according to the established time point.
Solvent: 0.5% Methylcellulose (aqueous solution containing 0.4% Tween 80 and 1% ethanol). Preparation of the solution for intragastrical administration: accurately weigh the compound, add it to the solvent, and ultrasonically at room temperature for 5 minutes to completely dissolve the drug, and prepare a 0.3 mg/ml medicinal solution.
Pharmaceutical samples: representative compounds of the structure shown in the patented formula (I) of the present invention, generally, multiple samples with similar structures (with a molecular weight difference of more than 2 units) are taken, accurately weighed, and administered together (cassette PK). In this way, multiple compounds can be screened at the same time and their oral absorption rates can be compared. A single administration was also used to study the pharmacokinetics of the drug sample in rats.
After intragastrical administration, blood was taken from the orbit at 0.25, 0.5, 1, 2, 4, 9, 12 and 24 hours, and placed in a plastic centrifuge tube pretreated with sodium heparin. After centrifugation, the supernatant plasma was used for LC-MS/MS analysis.
Accurately weigh the compounds to prepare different concentrations, perform quantitative analysis on mass spectrometry to establish a standard curve, and then test the concentration of the above-mentioned compound in the plasma to obtain the compound concentration at different time points. All measurement data are collected and processed by relevant software, and the statistical moment method is used to calculate the pharmacokinetic parameters (mainly including kinetic parameters Tmax, T1/2, Cmax, AUClast etc). The results are as follows:
Table 7: Pharmacokinetic Parameters of the Compounds after Intragastrical Administration in SD Rats

[2] = target: T1, Ba/F3_EGFR del19/T790M/C797S cells (Homo sapiens, UniProt P00533, T790M/C797S, cells depend on it, form not given); assay: Ba/F3_EGFR (del19-T790M-C797S) cell proliferation inhibition, CTG, method 1; assay type: cell-based; settings: 700 cells/well, 72 h, read-out: Ba/F3_EGFR (del19-T790M-C797S) cell proliferation inhibition (IC50 value) Method 1
Experimental: The cells were cultured in a 37° C., 5% CO2 incubator.
Cell plating and compound treatment: 1) Cells are routinely cultured until the cell saturation is 80%-90%, and when the number reaches the requirement, the cells are collected. 2) Resuspend in the corresponding fresh medium, take a small amount of cells to count, and prepare a cell suspension with a suitable density. 3) Inoculate the cell suspension into a 384-well plate at 700 cells/well, 30 μL per well. 4) Use Echo to add the compound to the corresponding cell well. The maximum starting concentration of the compound is 1-10 μM, 3 folds dilution, 8 concentrations.
CTG method detection: 1) Add 30 μL of CTG reagent (CelltiterGlo kit) to each well, and let it stand for 30 minutes at 37° C. and 5% CO2 in the dark. 2) Use Envision instrument to read the chemiluminescence signal value.
Data analysis: IC50 results are analyzed by GraphPad Prism 6 software. […] X: log value of compound concentration; Y: inhibition rate (% inhibition); inhibition rate (% inhibition)=(blank control well reading−compound well reading)/(blank control well reading−positive control reading)×100.

ALK = ALK (Homo sapiens, UniProt Q9UM73); assay: ALK kinase activity inhibition, Caliper mobility shift assay, method 2; assay type: biochemical; settings: ALK 1.25 nM, ATP 30 μM
Experimental: 2. ALK Kinase Activity Inhibition Experiment:
Method 2: Caliper mobility shift assay was used to measure ALK protein kinase activity. The method is basically the same as method 1, with individual parameters adjusted. The initial concentration of the compound is 1 mM, and sequentially diluted 4-fold to make 6 points (7 points for some individual compounds). Use a dispenser Echo 550 to transfer 250 nL of 100-fold final concentration of the compound to the target plate 3573, add 10 μL ALK with final concentration of 1.25 nM, incubate at room temperature for 10 minutes (the negative control well contains 10 μL kinase buffer and 250 nL 100% DMSO; the positive control well contains 10 μL kinase solution and 250 nL 100% DMSO). On the kinase ALK, add 15 μL of ATP with a final concentration of 30 μM and 3 μM of the substrate peptide No. 22 mixed solution to react for 25 minutes; add 30 μL of stop detection solution containing EDTA to stop the kinase reaction. Use Caliper EZ Reader to read the conversion rate. Inhibition rate %=(Average positive control conversion rate %−Sample conversion rate %/(Average positive control conversion rate %−Average negative control conversion rate %). Among them: negative control wells represent the conversion rate readings without enzyme activity; positive control wells represent the conversion rate readings of wells without compound inhibition. Take the log value of the concentration as the X-axis, and the percentage inhibition rate on the Y-axis. Log (inhibitor) vs. response—Variable slope of analysis software GraphPad Prism 5 was used to fit the curve to obtain the IC50 value of each compound on the enzyme activity. Calculation formula: Y=Bottom+(Top−Bottom)/(1+10^((Log IC50−X)*HillSlope)).

[3] = target: T1, Ba/F3_EGFR del19/T790M/C797S cells; assay: Ba/F3_EGFR (del19-T790M-C797S) cell proliferation inhibition, CTG, method 2; assay type: cell-based; settings: 2000 cells/well, 72 h, read-out: Ba/F3_EGFR (del19-T790M-C797S) cell proliferation inhibition (IC50 value) Method 2
Experimental: Take a small amount of cells and count them with ViCell. 2) Adjust the cell density, inoculate the cells in a 384-well plate at 2000/well, and incubate in a 37° C., 5% CO2 incubator for 4 hours. 3) Set up the program of Tecan HP D300, add the compound to the well plate. The maximum initial concentration of the compound is 1-4 μM, 3 folds dilution, 9 concentrations, and the DMSO content in each well is unified to 0.2%.
CTG method detection: 1) Take out the CTG reagent and cell plate and equilibrate at room temperature for 30 min, add 25 μL CTG to each well, shake at medium speed for 2 min, centrifuge at 1000 rpm for 1 minutes, and stand still at room temperature for 10 minutes. 2) Envision instrument reads the chemiluminescence signal value.
Data analysis: IC50 results are analyzed by IDBS's XL-fit 5.0 software.

T1 sequence (P00533 with tags, fused parts or gaps DEL746-750/T790M/C797S, form open): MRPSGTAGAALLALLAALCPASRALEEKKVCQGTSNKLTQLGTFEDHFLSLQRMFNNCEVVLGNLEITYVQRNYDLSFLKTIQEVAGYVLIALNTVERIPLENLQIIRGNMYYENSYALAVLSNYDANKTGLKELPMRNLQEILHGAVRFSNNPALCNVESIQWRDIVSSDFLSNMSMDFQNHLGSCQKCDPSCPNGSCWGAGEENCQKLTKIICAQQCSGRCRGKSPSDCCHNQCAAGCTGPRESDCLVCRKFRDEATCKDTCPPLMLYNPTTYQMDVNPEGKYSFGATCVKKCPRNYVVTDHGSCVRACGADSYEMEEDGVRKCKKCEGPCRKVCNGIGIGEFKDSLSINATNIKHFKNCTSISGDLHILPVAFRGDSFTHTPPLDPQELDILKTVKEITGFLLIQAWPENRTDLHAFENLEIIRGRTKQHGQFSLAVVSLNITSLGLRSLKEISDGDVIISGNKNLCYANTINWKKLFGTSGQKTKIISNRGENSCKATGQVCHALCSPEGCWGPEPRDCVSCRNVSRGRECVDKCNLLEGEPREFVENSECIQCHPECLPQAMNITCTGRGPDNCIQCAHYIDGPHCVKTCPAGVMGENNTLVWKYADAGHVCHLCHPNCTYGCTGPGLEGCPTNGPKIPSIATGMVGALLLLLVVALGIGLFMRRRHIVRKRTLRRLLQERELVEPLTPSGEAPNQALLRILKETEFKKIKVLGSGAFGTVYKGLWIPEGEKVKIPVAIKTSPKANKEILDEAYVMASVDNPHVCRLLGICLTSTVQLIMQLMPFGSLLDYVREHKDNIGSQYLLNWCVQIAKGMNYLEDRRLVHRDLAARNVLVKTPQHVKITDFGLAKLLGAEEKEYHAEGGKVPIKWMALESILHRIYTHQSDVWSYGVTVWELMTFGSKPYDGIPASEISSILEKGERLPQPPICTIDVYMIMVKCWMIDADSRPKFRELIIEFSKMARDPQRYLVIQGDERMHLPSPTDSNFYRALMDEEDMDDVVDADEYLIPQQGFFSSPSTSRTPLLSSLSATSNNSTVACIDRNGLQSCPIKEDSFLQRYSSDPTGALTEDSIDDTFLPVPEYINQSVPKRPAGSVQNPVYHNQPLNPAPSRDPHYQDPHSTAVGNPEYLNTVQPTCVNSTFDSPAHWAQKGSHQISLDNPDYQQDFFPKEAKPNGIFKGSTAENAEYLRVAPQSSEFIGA
Chain of MAP4K1 (HPK1) (Q92918 whole entry): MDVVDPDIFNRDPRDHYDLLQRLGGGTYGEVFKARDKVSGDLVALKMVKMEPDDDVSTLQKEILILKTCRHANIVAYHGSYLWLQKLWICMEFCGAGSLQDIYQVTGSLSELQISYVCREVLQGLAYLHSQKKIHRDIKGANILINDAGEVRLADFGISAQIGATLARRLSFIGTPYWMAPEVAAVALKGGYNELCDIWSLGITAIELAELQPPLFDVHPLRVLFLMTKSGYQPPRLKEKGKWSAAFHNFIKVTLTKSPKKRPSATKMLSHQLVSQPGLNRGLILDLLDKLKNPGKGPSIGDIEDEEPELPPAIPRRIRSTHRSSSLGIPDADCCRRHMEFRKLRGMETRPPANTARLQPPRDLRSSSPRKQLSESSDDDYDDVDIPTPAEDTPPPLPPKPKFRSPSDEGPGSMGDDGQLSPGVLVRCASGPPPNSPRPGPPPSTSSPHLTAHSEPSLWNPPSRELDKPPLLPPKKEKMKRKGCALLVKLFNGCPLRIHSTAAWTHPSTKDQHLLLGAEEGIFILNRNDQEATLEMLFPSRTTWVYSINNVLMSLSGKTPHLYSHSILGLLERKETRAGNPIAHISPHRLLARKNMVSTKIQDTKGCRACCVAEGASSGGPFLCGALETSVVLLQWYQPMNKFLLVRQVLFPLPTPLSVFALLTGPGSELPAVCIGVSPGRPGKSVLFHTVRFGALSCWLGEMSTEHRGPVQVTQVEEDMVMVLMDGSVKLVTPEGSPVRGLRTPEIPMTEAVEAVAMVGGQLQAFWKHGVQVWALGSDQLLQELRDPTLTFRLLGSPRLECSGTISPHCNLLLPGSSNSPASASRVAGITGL
Chain of EGFR (T790M/L858R/C797S) (P00533 25-1210 T790M/C797S/L858R): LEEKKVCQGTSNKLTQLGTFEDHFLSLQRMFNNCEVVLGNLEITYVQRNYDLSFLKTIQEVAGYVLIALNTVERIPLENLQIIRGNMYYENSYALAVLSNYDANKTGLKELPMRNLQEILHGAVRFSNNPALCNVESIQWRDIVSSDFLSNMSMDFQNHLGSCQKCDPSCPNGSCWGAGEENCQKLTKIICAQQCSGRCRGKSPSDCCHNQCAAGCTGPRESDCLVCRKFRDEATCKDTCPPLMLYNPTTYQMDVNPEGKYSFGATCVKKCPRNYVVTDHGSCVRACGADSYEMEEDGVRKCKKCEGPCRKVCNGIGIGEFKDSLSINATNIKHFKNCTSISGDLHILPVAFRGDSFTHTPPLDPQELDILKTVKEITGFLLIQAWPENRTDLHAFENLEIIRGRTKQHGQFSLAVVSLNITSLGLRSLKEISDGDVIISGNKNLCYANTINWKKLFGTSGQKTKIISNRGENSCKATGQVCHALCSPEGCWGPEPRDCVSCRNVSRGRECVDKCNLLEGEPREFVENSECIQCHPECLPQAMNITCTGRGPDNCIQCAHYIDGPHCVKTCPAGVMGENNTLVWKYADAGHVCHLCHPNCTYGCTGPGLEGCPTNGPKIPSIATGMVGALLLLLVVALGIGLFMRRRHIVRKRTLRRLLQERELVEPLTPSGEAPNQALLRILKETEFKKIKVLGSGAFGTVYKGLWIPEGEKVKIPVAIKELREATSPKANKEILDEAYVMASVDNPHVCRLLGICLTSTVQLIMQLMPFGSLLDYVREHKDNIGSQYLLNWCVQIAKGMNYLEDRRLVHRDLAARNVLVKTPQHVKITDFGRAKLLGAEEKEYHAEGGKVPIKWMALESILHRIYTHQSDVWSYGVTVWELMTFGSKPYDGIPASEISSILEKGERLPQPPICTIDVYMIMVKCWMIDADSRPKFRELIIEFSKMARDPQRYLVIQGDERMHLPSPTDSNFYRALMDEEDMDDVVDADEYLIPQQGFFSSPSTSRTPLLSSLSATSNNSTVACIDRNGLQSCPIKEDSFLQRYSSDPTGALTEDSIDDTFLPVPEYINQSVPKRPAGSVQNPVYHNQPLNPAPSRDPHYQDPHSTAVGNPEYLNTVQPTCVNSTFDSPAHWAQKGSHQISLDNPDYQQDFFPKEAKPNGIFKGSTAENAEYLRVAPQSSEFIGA
Chain of ALK (Q9UM73 19-1620): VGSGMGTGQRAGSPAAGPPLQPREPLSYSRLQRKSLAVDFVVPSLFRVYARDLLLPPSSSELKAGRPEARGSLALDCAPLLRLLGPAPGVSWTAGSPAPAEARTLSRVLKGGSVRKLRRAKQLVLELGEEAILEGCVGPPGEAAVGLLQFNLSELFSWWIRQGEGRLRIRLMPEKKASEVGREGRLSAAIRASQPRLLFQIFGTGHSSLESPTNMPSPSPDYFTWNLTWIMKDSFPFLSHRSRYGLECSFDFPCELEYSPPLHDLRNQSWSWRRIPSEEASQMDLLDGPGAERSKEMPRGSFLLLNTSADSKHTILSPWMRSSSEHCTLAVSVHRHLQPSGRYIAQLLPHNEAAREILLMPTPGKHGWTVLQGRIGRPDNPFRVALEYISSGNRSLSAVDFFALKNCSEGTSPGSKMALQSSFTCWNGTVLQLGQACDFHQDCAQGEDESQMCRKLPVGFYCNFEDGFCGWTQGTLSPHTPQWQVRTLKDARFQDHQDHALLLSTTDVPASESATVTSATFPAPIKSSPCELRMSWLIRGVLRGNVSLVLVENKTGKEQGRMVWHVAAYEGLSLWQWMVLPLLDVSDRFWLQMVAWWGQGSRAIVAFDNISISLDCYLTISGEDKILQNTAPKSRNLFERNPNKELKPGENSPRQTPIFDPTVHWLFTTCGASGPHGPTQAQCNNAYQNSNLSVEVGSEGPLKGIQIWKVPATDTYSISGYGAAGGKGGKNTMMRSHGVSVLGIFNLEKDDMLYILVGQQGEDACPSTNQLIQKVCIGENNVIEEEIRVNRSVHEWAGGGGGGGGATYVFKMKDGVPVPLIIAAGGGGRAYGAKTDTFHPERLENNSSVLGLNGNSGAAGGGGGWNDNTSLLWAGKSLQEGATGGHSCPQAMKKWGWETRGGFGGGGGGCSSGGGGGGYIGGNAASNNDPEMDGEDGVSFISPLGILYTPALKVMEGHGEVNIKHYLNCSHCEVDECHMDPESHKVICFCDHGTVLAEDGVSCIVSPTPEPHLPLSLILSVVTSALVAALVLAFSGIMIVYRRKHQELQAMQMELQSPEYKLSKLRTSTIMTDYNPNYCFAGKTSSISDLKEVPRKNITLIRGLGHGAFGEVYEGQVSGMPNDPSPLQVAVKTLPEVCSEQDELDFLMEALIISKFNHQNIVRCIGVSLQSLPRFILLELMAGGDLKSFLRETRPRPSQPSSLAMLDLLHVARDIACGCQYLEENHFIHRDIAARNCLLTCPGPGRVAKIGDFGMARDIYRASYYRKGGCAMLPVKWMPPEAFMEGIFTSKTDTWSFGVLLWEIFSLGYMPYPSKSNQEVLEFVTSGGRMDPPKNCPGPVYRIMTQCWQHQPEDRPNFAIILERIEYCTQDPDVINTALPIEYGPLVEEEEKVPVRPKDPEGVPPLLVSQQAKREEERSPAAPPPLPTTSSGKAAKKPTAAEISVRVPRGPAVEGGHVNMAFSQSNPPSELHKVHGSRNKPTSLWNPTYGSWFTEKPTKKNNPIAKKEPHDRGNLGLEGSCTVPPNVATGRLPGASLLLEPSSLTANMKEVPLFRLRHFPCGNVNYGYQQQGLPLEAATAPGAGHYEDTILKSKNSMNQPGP

IC50 (EGFR (T790M/L858R/C797S)) [nM]	IC50 (MAP4K1 (HPK1)) [nM]	Cmax [1] [ng/mL]	Tmax [1] [h]	half-life [1] [h]	AUC(0-t) [1] [ng·h/mL]	GI50 [2] [nM]	IC50 (ALK) [nM]	GI50 [3] [nM]	SMILES
< 3	≤ 1	61.4	6.33	6.75	585	< 20	1 to 50		Cc1cc(Nc2ncc(Cl)c(Nc3ccccc3P(C)(C)=O)n2)cc2c1N1CCN(C)C[C@@H]1CO2 [Compound 25R]
3 to 15	≤ 1					< 20	1 to 50		C=CC(=O)N1CCN2c3c(C)cc(Nc4ncc(Cl)c(Nc5ccccc5P(C)(C)=O)n4)cc3OC[C@H]2C1 [Compound 26R]
< 3	≤ 1	140	10	5.2	2100		1 to 50	< 20	Cc1cc(Nc2ncc(Cl)c(Nc3ccccc3P(C)(C)=O)n2)cc2c1N1CCN(C3CCN(C)CC3)C[C@H]1CO2 [Compound 27S]
< 3	≤ 1						1 to 50	20 to 100	CCN1CCC(N2CCN3c4c(C)cc(Nc5ncc(Cl)c(Nc6ccccc6P(C)(C)=O)n5)cc4OC[C@H]3C2)CC1 [Compound 30R]
< 3	≤ 1	78.4	6.33	5.18	687		1 to 50	20 to 100	Cc1cc(Nc2ncc(Cl)c(Nc3ccccc3P(C)(C)=O)n2)cc2c1N1CCN(C3CCOCC3)C[C@@H]1CO2 [Compound 31R]
< 3	≤ 1	306	2	1.95	3420		1 to 50	20 to 100	CC(=O)N1CCC(N2CCN3c4c(C)cc(Nc5ncc(Cl)c(Nc6ccccc6P(C)(C)=O)n5)cc4OC[C@H]3C2)CC1 [Compound 32R]
< 3	≤ 1	120	7.33	3.88	1780			20 to 100	Cc1cc(Nc2ncc(Cl)c(Nc3ccccc3P(C)(C)=O)n2)cc2c1N1CCN(C3CCN(C4CC4)CC3)C[C@@H]1CO2 [Compound 33R]
< 3	≤ 1	15	4.33	3.97	179			20 to 100	CN1CCC(N2CCN3c4c(F)cc(Nc5ncc(Cl)c(Nc6ccccc6P(C)(C)=O)n5)cc4OC[C@@H]3C2)CC1 [Compound 35S]
